The values below are quoted from earlier work in patent US20250295562A1, “Formulation for treatment of melasma, hyperpigmentation, and dark spots” (priority 2024, published 2025).

For data set [1] the following is noted: clinical.

In the case of `CCCCC/C=C\C/C=C\CCCCCCCC(=O)OCC` [Ethyl Linoleate, Ethyl linoleate], the anti-acne effect entry in data set [1] is reported as “effective anti-acne agent”.
Turning to `CC(C)=CCC1=C(O)C(C(=O)CC(C)C)=C(O)C(CC=C(C)C)(CC=C(C)C)C1=O` [lupulone], the bactericidal activity entry with bacteria is “exhibited bactericidal activity”. The anticollagenase inhibitory activity result with collagenase was “moderate to strong”.
Turning to `COc1cc(O)c(CC=C(C)C)c(O)c1C(=O)/C=C/c1ccc(O)cc1` [xanthohumol], the bactericidal activity result in the data set on bacteria is listed as “exhibited bactericidal activity”. Besides, the anticollagenase inhibitory activity entry with collagenase is recorded as “moderate to strong”.
